Non-standard residues stand in square brackets, D forms with d. Residues, ends and D or L forms follow the SMILES beside them. d1Nal = N[C@H](Cc1cccc2ccccc12)C(=O)O
Assays:
Clostridium difficile = Clostridium difficile 9689
[1] = system: Enterococcus faccium (VRE); settings: Enterococcus faccium 700221 (VRE)
Enterococcus hirae = Enterococcus hirae 9790
[2] = system: E. coli 0111 :B4 lipopolysaccharide challenge in CD-1 mice; test: Murine model of endotoxemia (survival); type: in vivo; settings: 0.65 mg/kg intravenously; 25 mg/kg LPS; seven days
Description: This example addresses studies relating to additional activities of XMP.629, including its known endotoxin-related activities. […] For these studies, groups of 15 male CD-1 mice were challenged with 25 mg/kg E. coli 0111 :B4 lipopolysaccharide via tail vein injection. Immediately following endotoxin challenge, mice were treated intravenously with XMP.629 at 0.07, 0.2, 0.65 mg/kg or saline. Animals were observed twice daily and mortality was recorded for seven days.

[3] = system: eye of New Zealand White rabbits; test: Rabbit primary eye irritation test (Draize); type: in vivo
Description: XMP.629 was evaluated in a rabbit primary eye irritation test for potential ocular irritant and/or corrosive effects when topically applied to the eye of three New Zealand White rabbits.
All animals received 0.1 mL of a 2% solution XMP.629 in 10 mM sodium acetate instilled into the right conjunctival sac and left in place for 24 hours. The control eye was untreated. The treated eye was washed out with 100 mL of lukewarm water for one to two minutes at approximately 24 hours post-dose. The treated and control eyes were examined at approximately 1, 24, 48, and 72 hours post-dose and on days 5, 8, and 15 for ocular irritation using the standard Draize scoring system (Draize et al., 1944, supra). Sodium fluorescein and ultraviolet light was used to examine for possible corneal injury.

[4] = system: polychromatic erythrocyte (PCE) cells in mouse bone marrow; test: Mouse bone marrow micronucleus assay; type: in vivo, Crl:CD-1(ICR) BR mouse
Description: XMP.629 was next evaluated for in vivo clastogenic activity and/or disruption of mitotic apparatus by detecting micronuclei in polychromatic erythrocyte (PCE) cells in Crl:CD-1®(ICR) BR mouse bone marrow. The assay design was based on OECD Guideline 474, updated and adopted Jul. 21, 1997. In this micronucleus assay, XMP.629 was formulated in 10 mM sodium acetate buffer (pH 6.0) and dosed by intraperitoneal injection to six males per dose level at each scheduled harvest timepoint. The dose levels were 2, 4, or 8 mg/kg. Five animals dosed with XMP.629 at 2 or 4 mg/kg and five animals dosed with a positive control were euthanized approximately 24 hours after dosing for extraction of the bone marrow. Five animals per harvest timepoint dosed with XMP.629 at 8 mg/kg and five animals per harvest timepoint dosed with the vehicle control article were euthanized approximately 24 or 48 hours after dosing for extraction of the bone marrow. This micronucleus test can serve as a rapid screen for compounds which interfere with normal mitotic cell division (Schmid, 1975, Mutat. Res. 31: 9-15; Heddle et al., 1983, Mutat. Res. 123: 61-118; Heddle et al., 1991, Env. And Mol. Mutagen. 18: 277-291). At least 2000 PCEs per animal were analyzed for the frequency of micronuclei. Cytotoxicity was assessed by scoring the number of PCEs and normochromatic erythrocytes (NCEs) in at least the first 500 erythrocytes for each avenal. […] Therefore, XMP.629 was determined to be negative in the mouse bone marrow micronucleus assay.

Hanford minipigs = test: Minipig subchronic dermal toxicity test with toxicokinetics; type: in vivo; settings: one 70 μg/kg/day female
Description: XMP.629 was evaluated for potential toxicity when administered by a single daily dermal application to Hanford minipigs over the course of one month. The study group design and dosage levels tested were as follows:
The test article or placebo control was administered once daily to the dorsal surface of each animal for 29 consecutive days. General health, mortality and moribundity checks were conducted twice daily. General health examinations were performed by a veterinarian once prior to in-life initiation and weekly during the study. The animals were examined daily for overt toxic signs (post-dose observations) between one and two hours following dosing. Detailed clinical observations and individual body weights were performed weekly, beginning on study day 0, and on the day of scheduled euthanasia. Dermal scoring was performed once per week and on the day of scheduled euthanasia.
Hematology, coagulation and clinical chemistry parameters were evaluated once prior to in-life initiation (day -9) and near the conclusion of the dosing phase (day 26). Blood samples were also collected for anti-test article analyses on study day 26 and toxicokinetic (TK) analyses on study days 0 and 27. Ophthalmological examinations were performed once prior to in-life initiation and just prior to the end of the dosing phase. […]

in vivo = settings: both, minipig, plasma, iv; for half-life: 0.05 or 2 mg/kg short IV infusion
[5] = system: P. acnes strain ATCC 6919; test: Kill curves / kill kinetics; type: cell-based, Propionibacterium acnes
Description: Kill curves were generated by incubating P. acnes strain ATCC 6919 with formulation buffer solutions of XMP.629 or other antibiotics at concentrations of […]. Samples were removed and plated at the indicated time periods. After incubation, colonies were counted and the kill kinetics determined for each drug.
For example, at a higher concentration of 4 μg/mL, a rapid reduction of viable cells in 8 hours to undetectable levels was observed. […] In additional kill curve studies against P. acnes, XMP.629 was bactericidal within 6 hours of exposure.

Question: For `CC(C)C[C@@H](NC(=O)[C@H](N)CCCCN)C(=O)N[C@H](Cc1ccccc1)C(=O)N[C@H](CCCNC(=N)N)C(=O)N[C@H](Cc1cccc2ccccc12)C(=O)N[C@H](CCC(N)=O)C(=O)N[C@H](C)C(=O)N[C@H](CCCCN)C(=O)N[C@H](Cc1cccc2ccccc12)C(N)=O` [XMP.629, NH2-lys-leu-phe-arg-(3-(1-naphthyl)-ala)-gln-ala-lys-(3-(1-naphthyl)-ala)-CONH2] (H-[dK][dL][dF][dR][d1Nal][dQ][dA][dK][d1Nal]-NH2), which “Minimum Inhibitory Concentrations” value (Clostridium difficile) is on record?
Answer: 2.00 µg/mL

Question: And the “Minimum Inhibitory Concentrations” value [1]?
Answer: 2.00 µg/mL

Question: And the “Minimum Inhibitory Concentrations” value (Enterococcus hirae)?
Answer: 2.00 µg/mL

Question: And the “survival in endotoxin-challenged mice” value [2]?
Answer: complete protection

Question: What about the “ocular irritation, overall” value ([3]; 2% XMP.629 in 10 mM sodium acetate solution) of the same compound?
Answer: mildly irritating

Question: And the corneal opacity ([3]; 2% solution in 10 mM sodium acetate, any time point)?
Answer: no effects on corneal opacity

Question: What about the “iris, average scores” value ([3]; 2% solution, 48 hours post-instillation) of the same compound?
Answer: less than 1

Question: And the “mouse bone marrow micronucleus assay result” value ([4]; 2, 4, or 8 mg/kg intraperitoneal)?
Answer: negative

Question: And the “cytotoxicity to the bone marrow (PCE:NCE ratios)” value ([4]; any dose level tested)?
Answer: not cytotoxic to the bone marrow

Question: What about the “signs of clinical toxicity” value ([4]; up to 8 mg/kg) of the same compound?
Answer: did not induce any signs of clinical toxicity

Question: What about the Dermal observations (Hanford minipigs) of the same compound?
Answer: single incidence of grade 2 (well defined) erythema

Question: And the Vd (in vivo; Sinclair mini-pig)?
Answer: 0.067 to 0.102 L/kg

Question: And the clearance (in vivo; Sinclair mini-pig)?
Answer: 1.75 to 2.6 mL/min/kg

Question: And the Vd (in vivo; Sinclair mini-pig, 0.05 mg/kg)?
Answer: 1.79 L/kg

Question: And the Vd (in vivo; Sinclair mini-pig, 0.2 mg/kg)?
Answer: 0.956 L/kg

Question: And the half-life (in vivo; Sinclair mini-pig, beta half-life)?
Answer: 1 to 1.3 h

Question: And the half-life (in vivo; Sinclair mini-pig, initial half-life)?
Answer: 0.03 to 0.9 h

Question: And the half-life (in vivo; Sinclair mini-pig, terminal half-life)?
Answer: ~15 h

Question: What about the MRT (in vivo; Sinclair, 0.05 mg/kg) of the same compound?
Answer: 11.3 h

Question: What about the clearance (in vivo; Sinclair, 0.05 mg/kg) of the same compound?
Answer: 2.59 mL/min/kg

Question: And the MRT (in vivo; Sinclair, 0.2 mg/kg)?
Answer: 7.41 h

Question: What about the clearance (in vivo; Sinclair, 0.2 mg/kg) of the same compound?
Answer: 1.74 mL/min/kg

Question: And the “time to reduction of viable cells to undetectable levels” value ([5]; 4 μg/mL)?
Answer: 8 h

Question: And the “exposure time until bactericidal” value ([5]; additional kill curve studies against P. acnes)?
Answer: ≤ 6 h

Question: What about the “culture at 19 hours” value ([5]; all concentrations tested) of the same compound?
Answer: no detected organisms

Question: What about the “contact time to kill the microorganisms” value ([5]; depending on dose) of the same compound?
Answer: up to 10 hours

Source: US20050148495A1, “Methods and materials including for treating acne” (priority 2003, published 2005)
